Results: patent US8153385B2, “Target protein and target gene in drug designing and screening method” (Reverse Proteomics Research Institute Co., Ltd., priority 2004, dated 2012)
Where a name gives a salt, the structure may show the parent alone.

Biological target: T1, FLJ13397 clone-derived protein (CARP) (Homo sapiens, UniProt Q9H8M7)
T1 construct: A human full-length cDNA clone was expressed as a protein with an N-terminal His tag; His tag (pDEST17 Gateway vector) (N); made in house; host or cells: Escherichia coli BL21star(DE3)pLysS
T1 sequence (Q9H8M7 1-445): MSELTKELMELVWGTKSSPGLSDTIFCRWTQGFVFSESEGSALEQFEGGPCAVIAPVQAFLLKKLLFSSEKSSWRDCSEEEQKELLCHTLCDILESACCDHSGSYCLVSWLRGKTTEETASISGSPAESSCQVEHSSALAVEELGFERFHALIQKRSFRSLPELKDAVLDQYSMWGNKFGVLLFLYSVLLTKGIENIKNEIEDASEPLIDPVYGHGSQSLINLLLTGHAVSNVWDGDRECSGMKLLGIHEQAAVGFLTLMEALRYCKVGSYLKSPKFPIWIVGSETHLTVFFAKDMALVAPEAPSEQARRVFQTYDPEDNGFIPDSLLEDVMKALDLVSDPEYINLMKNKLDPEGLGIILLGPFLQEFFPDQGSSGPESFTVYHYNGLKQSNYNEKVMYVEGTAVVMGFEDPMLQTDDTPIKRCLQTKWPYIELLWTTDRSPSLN
Assay: SEC/MS (size exclusion chromatography / mass analysis) interaction analysis between FLJ13397 clone-derived protein and compounds
Type: binding
Protocol: BP-reaction was performed on human full-length cDNA clone and the cloning vector Gateway pDONR201 by the PCR cloning method using the Invitrogen Gateway system to yield an entry clone. LR-reaction was performed on this entry clone with the destination vector pDEST17 (Gateway System) and LR Clonase at 25° C. for 60 minutes to yield an expression plasmid. Escherichia coli competent cell BL21star(DE3)pLysS were transformed with this expression plasmid, a clone incorporating the expression vector was selected, and a frozen stock was prepared. The transformant was inoculated into LB medium and precultured, after which it was transferred into SB medium and cultured to induce the expression by IPTG, and the cells were stored frozen.
A human full-length cDNA clone was expressed as a protein with an N-terminal His tag. This clone was purified using BioRobot 8000 (Qiagen) or ACTA Crystal (Amersham). […] In the purification with ACTA Crystal, affinity purification using a HisTrap HP column was followed by gel filtration purification using the Gel Filtration Column HiLoad 16/60 or a 10/30 Superdex 75 prep grade column. The purified fraction was used for interaction analysis after being subjected to SDS-PAGE to verify the estimated molecular weight and purity.
To analyze the interactions between commonly used drugs and proteins expressed from human full-length cDNA clones while keeping both the proteins and the compounds in non-modified, non-immobilized state, size exclusion chromatography (SEC) and mass analysis were used in combination (FIGS. 1 and 2). The specific procedures are shown below.
The compound-protein mixture prepared in step 1 was subjected to chromatography using an SEC column, the compound and the protein were separated by SEC, and the bound compound or compound that interacted with the protein in the protein fraction was analyzed using a mass analyzer.
Protein concentrations were measured using BCA Protein Assay (PIERCE), in consideration of the purity calculated by SDS-PAGE.
Mass analysis was performed using LCQ DECA XP (Thermoelectron) or Q-TOFmicro (Micromass), equipped with an ESI probe. The LC pump used was Agilent 1100 (Yokogawa Analytical Systems), and the autosampler used was HTC-PAL (CTC Analytics) equipped with a cooling stacker.
In the SEC method using a 384-well spin column, Unifilter 100 (Whatman), packed with 10 μL (dry volume) of Bio-Gel P6 (BIO-RAD) and swollen with milliQ water, was used as the SEC column. […] The SEC spin column was mounted on an acetonitrile-aliquoted 384-well U-bottom plate and centrifuged; the SEC spin column filtrate, which is a protein fraction, was retrieved in 50% acetonitrile. The protein precipitate produced by the acetonitrile was removed via centrifugation and filtration for protein removal; the resulting filtrate was concentrated by centrifugation and re-dissolved in 10 μL of 50% methanol to obtain a mass analysis sample. The mobile phase supplied to the mass analyzer was 0.1% formic acid/50% methanol solution in the positive ion mode, and 0.1% ammonia/50% methanol solution in the negative ion mode; these mobile phases were used at a flow rate of 40 μL/min. 2-μL of mass analysis samples were injected using an autosampler at 2-Minute intervals; the mass spectral intensity of the compound was measured to obtain the spectral intensity of the pharmaceutical compound contained in the SEC spin column filtrate (protein fraction eluted from SEC).

[1] = compound 1 μM, protein 0 μM (protein-free reference)
[2] = compound 1 μM, protein 23.75 μM
[3] = compound 10 μM, protein 0 μM (protein-free reference)
[4] = compound 10 μM, protein 23.75 μM
[5] = compound 10 μM, protein 47.5 μM
[6] = compound 100 μM, protein 0 μM (protein-free reference)
[7] = compound 100 μM, protein 23.75 μM
[8] = compound 100 μM, protein 47.5 μM
[9] = compound 250 μM, protein 0 μM (protein-free reference)
[10] = compound 250 μM, protein 23.75 μM
[11] = compound 250 μM, protein 47.5 μM

Compound | spectrum intensity of the extracted mass range (compound in SEC spin column filtrate) [1] | spectrum intensity of the extracted mass range (compound in SEC spin column filtrate) [2] | spectrum intensity of the extracted mass range (compound in SEC spin column filtrate) (compound 1 μM, protein 47.5 μM) | spectrum intensity of the extracted mass range (compound in SEC spin column filtrate) [3] | spectrum intensity of the extracted mass range (compound in SEC spin column filtrate) [4] | spectrum intensity of the extracted mass range (compound in SEC spin column filtrate) [5] | spectrum intensity of the extracted mass range (compound in SEC spin column filtrate) [6] | spectrum intensity of the extracted mass range (compound in SEC spin column filtrate) [7] | spectrum intensity of the extracted mass range (compound in SEC spin column filtrate) [8] | spectrum intensity of the extracted mass range (compound in SEC spin column filtrate) [9] | spectrum intensity of the extracted mass range (compound in SEC spin column filtrate) [10] | spectrum intensity of the extracted mass range (compound in SEC spin column filtrate) [11] | interaction with the FLJ13397-expressed protein (judgement) (judged from increase of spectrum intensity with doses of compound and protein)
COc1ccc(CCN2CCC(Nc3nc4ccccc4n3Cc3ccc(F)cc3)CC2)cc1 [Astemizole] | 12239048 | 16006165 | 18099237 | 13557249 | 118520633 | 36678174 | 210085727 | 1213216132 | 2237504347 | 710392964 | 1027353172 | 2019252410 | concentration-dependent interaction
COC(=O)Nc1nc2ccc(C(=O)c3ccccc3)cc2[nH]1 [Mebendazole] | 495347 | 480780 | 495499 | 525296 | 777305 | 725295 | 482901 | 15054045 | 9517765 | 444136 | 32097734 | 43484997 | –
COC(=O)Nc1nc2ccccc2[nH]1 [Carbendazim] | 20852664 | 16443963 | 24660680 | 22203544 | 21673683 | 32996198 | 20562919 | 35342827 | 65044479 | 34177767 | 129995989 | 148437211 | –
CC[C@@H](C(=O)[C@@H](C)[C@@H](O)[C@H](C)CCc1ccc(C)c(O)c1C(=O)O)[C@H]1O[C@](CC)([C@H]2CC[C@](O)(CC)[C@H](C)O2)C[C@@H]1C [Lasalocid sodium salt] | 9674294 | 11601595 | 10467838 | 13154726 | 20062681 | 46504126 | 945932706 | 2538387120 | 3226817361 | 2174989976 | 9287976762 | 9802098210 | –
Oc1ccc(CCN2CCC(Nc3nc4ccccc4n3Cc3ccc(F)cc3)CC2)cc1 [Desmethyl-astemizole] | 12076364 | 10091649 | 10876345 | 6489161 | 12628724 | 26276867 | 85510154 | 141884756 | 225675004 | 135192715 | 339921213 | 728918987 | –
CCCS(=O)(=O)c1ccc2[nH]c(N)nc2c1 [2-Amino-5-N-Propylsulphonylbenzimidazole, 2-Amino-5-N-propylsulphonylbenzimidazole] | 825049 | 360734 | 484482 | 1750199 | 1437041 | 1664928 | 36160236 | 53411123 | 52719227 | 91113992 | 98334673 | 159174682 | –
